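All cell lines were grown in 96-well plates and treated with compound for 48 hours. Here, GI50 denotes the concentration required for 50% inhibition of growth.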 Activity calls are given as the source filed them. No stated cut-off is given here; in the data, active = GI50 up to about 1.1 µM and inactive = higher.
Tests used:
Assay in all cases: NCI-60 cell line screen, 48 h
[1] = test system: DMS-114
[2] = test system: DMS-273
[3] = test system: HOP-18
[4] = test system: XF498
[5] = test system: DLD-1
[6] = test system: LXFL 529
[7] = test system: KM-20L2
[8] = test system: RXF 631
[9] = test system: M19-MEL

Compound	GI50 [1]	GI50 [2]	GI50 [3]	GI50 [4]	GI50 [5]	GI50 [6]	GI50 [7]	GI50 [8]	GI50 [9]
O=C(c1ccccc1)C(c1ccccc1)C1(O)C(=O)Nc2c(Cl)cc(Cl)cc21 (stereo not drawn)	16.5 µM (inactive)	27.4 µM (inactive)	14.9 µM (inactive)	> 100 µM (inactive)	17.7 µM (inactive)	11.4 µM (inactive)	36.8 µM (inactive)	18.9 µM (inactive)	
C#CCn1c(=O)c2cccnc2n(CC#C)c1=O		> 100 µM (inactive)	> 100 µM (inactive)	> 100 µM (inactive)	> 100 µM (inactive)	> 100 µM (inactive)			
O=C1C=CC2(C=C1)CCNC1=C2C(=O)c2ccccc2C1=O	> 100 µM (inactive)	> 100 µM (inactive)		> 100 µM (inactive)	> 100 µM (inactive)	> 100 µM (inactive)	> 100 µM (inactive)	> 100 µM (inactive)	32.5 µM (inactive)
C/C(=N\[N+](C)(C)C)C(c1ccccc1)C1(c2ccccc2)C(c2ccccc2)=C1c1ccccc1 (stereo not drawn)		> 100 µM (inactive)		22.6 µM (inactive)	> 100 µM (inactive)		> 100 µM (inactive)		> 100 µM (inactive)
C=C(OC1C(C)=C2C(C1OC(=O)CCCCCCC)C(C)(OC(C)=O)CC(OC(=O)CCC)C1(O)C2OC(=O)C1(C)O)/C(C)=C/C (stereo not drawn)	0.0125 µM (active)	0.0125 µM (active)	0.0125 µM (active)	0.348 µM (active)	0.843 µM (active)		0.0314 µM (active)		0.0125 µM (active)
O=C(O)/C=C\C(=O)Nc1ccc(S(=O)(=O)c2ccc(NC(=O)/C=C\C(=O)O)cc2)cc1	> 100 µM (inactive)			> 100 µM (inactive)	> 100 µM (inactive)	> 100 µM (inactive)	> 100 µM (inactive)		45 µM (inactive)
N#CC(NNC(=O)c1ccccc1O)c1cccc(O)c1 (stereo not drawn)	3.61 µM (inactive)	2.32 µM (inactive)	35.3 µM (inactive)		4.54 µM (inactive)	4.31 µM (inactive)	33.7 µM (inactive)		
c1cc(-c2cn3ccsc3n2)ccn1	> 66.5 µM (inactive)	32.7 µM (inactive)	> 100 µM (inactive)	> 100 µM (inactive)	> 100 µM (inactive)	> 100 µM (inactive)	> 31.6 µM (inactive)	> 100 µM (inactive)	> 60.5 µM (inactive)
CCN(CC)CC1c2ccccc2C(CNc2ccccc2)N1C (stereo not drawn)	> 100 µM (inactive)	> 100 µM (inactive)		> 100 µM (inactive)	70.8 µM (inactive)	> 100 µM (inactive)	> 100 µM (inactive)	> 100 µM (inactive)	> 100 µM (inactive)
O.O=C([O-])c1ccccc1Nc1ccccc1C(=O)[O-].[Zn+2]	17.5 µM (inactive)	15.7 µM (inactive)	> 52.6 µM (inactive)	25.1 µM (inactive)	29.2 µM (inactive)	22.1 µM (inactive)	94 µM (inactive)		17.3 µM (inactive)
O=C(N/C=C/C=C/Sc1ccccc1)OCc1ccccc1	16.6 µM (inactive)	16.6 µM (inactive)	28.1 µM (inactive)	20.4 µM (inactive)	14.1 µM (inactive)	17.1 µM (inactive)	17.2 µM (inactive)	19.1 µM (inactive)	17.2 µM (inactive)
Cc1oc2c(C)c3oc(=O)cc(C)c3cc2c1CNC(=O)[C@@H]1OCCOCCOCCOCCOCCOC1C(=O)O (stereo partly drawn)	> 100 µM (inactive)	> 100 µM (inactive)	> 100 µM (inactive)	> 10 µM (inactive)	> 100 µM (inactive)	8.15 µM (inactive)	> 100 µM (inactive)	36.1 µM (inactive)	> 100 µM (inactive)
Cn1cc(NC(=O)c2cc(NC(=O)CCCCCCC(=O)Nc3cc(C(=O)Nc4cc(C(=O)NCCC(=N)N)n(C)c4)n(C)c3)cn2C)cc1C(=O)NCCC(=N)N	2.47 µM (inactive)	3.82 µM (inactive)	15.5 µM (inactive)	34.9 µM (inactive)	18.9 µM (inactive)	5.92 µM (inactive)	> 100 µM (inactive)		2.82 µM (inactive)
O=C1c2ccccc2C(=O)c2c(/C=C\N3CCCCC3)ccnc21	0.813 µM (active)	2.3 µM (inactive)	1.25 µM (inactive)	11.1 µM (inactive)	1.39 µM (inactive)	0.377 µM (active)	15.5 µM (inactive)	8.22 µM (inactive)	0.237 µM (active)
COc1ccc(-c2cc(C(=O)Nc3ccc(C)c(C)c3)nc(NC#N)n2)cc1	> 100 µM (inactive)	> 100 µM (inactive)	0.562 µM (active)	> 100 µM (inactive)	> 100 µM (inactive)	> 100 µM (inactive)	> 100 µM (inactive)		> 100 µM (inactive)
Cc1ccc(C(=O)O)cc1NC(=O)c1cc(/C=C/c2ccccc2)[nH]c(=S)n1	> 57 µM (inactive)	> 57.4 µM (inactive)	> 100 µM (inactive)	> 100 µM (inactive)	> 49.8 µM (inactive)	> 84.5 µM (inactive)	> 100 µM (inactive)	> 100 µM (inactive)	
O=[N+]([O-])c1ccc(-c2noc(-c3ccccc3)c2C2=NCCN2)cc1			21.1 µM (inactive)	70.6 µM (inactive)	> 100 µM (inactive)	> 100 µM (inactive)	40.5 µM (inactive)	60.3 µM (inactive)	> 100 µM (inactive)
CN(CCO)c1nc(=O)c2c(n1C1OC(CO)C(O)C(O)C1O)CCCC2 (stereo not drawn)	> 100 µM (inactive)	> 100 µM (inactive)	> 100 µM (inactive)	> 100 µM (inactive)	> 100 µM (inactive)	> 100 µM (inactive)	> 100 µM (inactive)		> 100 µM (inactive)
N=C(N)C1=C(O)NC(=O)N(C2CCCCC2)C1	> 100 µM (inactive)	> 100 µM (inactive)	> 100 µM (inactive)		> 100 µM (inactive)	> 100 µM (inactive)	> 100 µM (inactive)		> 100 µM (inactive)
N#Cc1cccc(-n2[nH]c(=O)ccc2=O)c1	> 100 µM (inactive)	> 100 µM (inactive)			> 100 µM (inactive)	> 100 µM (inactive)	> 100 µM (inactive)		> 100 µM (inactive)
COCN1C(=O)C2CC(/C=C/C(N)=O)=CN2C(=O)c2ccccc21 (stereo not drawn)	> 100 µM (inactive)	> 100 µM (inactive)	> 100 µM (inactive)	> 100 µM (inactive)	> 100 µM (inactive)	> 100 µM (inactive)	> 100 µM (inactive)		> 100 µM (inactive)
CS(=O)(=O)ON1C(=O)c2ccc(N)cc2C1=O	> 74.5 µM (inactive)	> 100 µM (inactive)	> 100 µM (inactive)	> 79.1 µM (inactive)	> 65.8 µM (inactive)	> 78.5 µM (inactive)	> 100 µM (inactive)	> 100 µM (inactive)	> 59.8 µM (inactive)
COc1cc([C@@H]2c3cc4c(cc3[C@@H](NC(=O)c3ccccc3)C3COC(=O)[C@@H]32)OCO4)cc(OC)c1O (stereo partly drawn)	2.61 µM (inactive)	1.52 µM (inactive)	> 100 µM (inactive)		14.9 µM (inactive)	12.1 µM (inactive)	2.71 µM (inactive)		4.82 µM (inactive)
COc1cc2nncc(Sc3cnnc4ccccc34)c2cc1OC	9.95 µM (inactive)	29.7 µM (inactive)	16.5 µM (inactive)		19.6 µM (inactive)	9.79 µM (inactive)	25.6 µM (inactive)	23 µM (inactive)	30.7 µM (inactive)
CCN(CC)CCOC(c1ccccc1)c1ccccc1.CCOC(=O)Nc1ccc(S(=O)(=O)NCCCl)cc1.CCOC(=O)Nc1ccc(S(=O)(=O)NCCCl)cc1.Nc1ccc(C(=O)O)c(O)c1	> 100 µM (inactive)		> 100 µM (inactive)		> 100 µM (inactive)	> 100 µM (inactive)	> 100 µM (inactive)	> 100 µM (inactive)	> 100 µM (inactive)

Reference: ChEMBL document CHEMBL1201862, “PubChem BioAssay data set” (2004)
